From patent publication US10040781B2, “Tank-binding kinase inhibitor compounds” (Gilead Sciences, Inc., priority 2014, dated 2018)

Assays:
IKKε = IKKε (Homo sapiens (Human), UniProt Q14164); assay: IKKε TR-FRET enzymatic assay; assay type: biochemical; settings: TR-FRET, 2×Km ATP; geometric mean of minimum four determinations; read-out: IKKe IC50
hJAK2 = hJAK2 (Homo sapiens (Human), UniProt O60674); assay: hJAK2 LANCE TR-FRET enzymatic assay; assay type: biochemical; settings: read-out: JAK2 IC50
Sequence of hJAK2 (O60674 whole entry): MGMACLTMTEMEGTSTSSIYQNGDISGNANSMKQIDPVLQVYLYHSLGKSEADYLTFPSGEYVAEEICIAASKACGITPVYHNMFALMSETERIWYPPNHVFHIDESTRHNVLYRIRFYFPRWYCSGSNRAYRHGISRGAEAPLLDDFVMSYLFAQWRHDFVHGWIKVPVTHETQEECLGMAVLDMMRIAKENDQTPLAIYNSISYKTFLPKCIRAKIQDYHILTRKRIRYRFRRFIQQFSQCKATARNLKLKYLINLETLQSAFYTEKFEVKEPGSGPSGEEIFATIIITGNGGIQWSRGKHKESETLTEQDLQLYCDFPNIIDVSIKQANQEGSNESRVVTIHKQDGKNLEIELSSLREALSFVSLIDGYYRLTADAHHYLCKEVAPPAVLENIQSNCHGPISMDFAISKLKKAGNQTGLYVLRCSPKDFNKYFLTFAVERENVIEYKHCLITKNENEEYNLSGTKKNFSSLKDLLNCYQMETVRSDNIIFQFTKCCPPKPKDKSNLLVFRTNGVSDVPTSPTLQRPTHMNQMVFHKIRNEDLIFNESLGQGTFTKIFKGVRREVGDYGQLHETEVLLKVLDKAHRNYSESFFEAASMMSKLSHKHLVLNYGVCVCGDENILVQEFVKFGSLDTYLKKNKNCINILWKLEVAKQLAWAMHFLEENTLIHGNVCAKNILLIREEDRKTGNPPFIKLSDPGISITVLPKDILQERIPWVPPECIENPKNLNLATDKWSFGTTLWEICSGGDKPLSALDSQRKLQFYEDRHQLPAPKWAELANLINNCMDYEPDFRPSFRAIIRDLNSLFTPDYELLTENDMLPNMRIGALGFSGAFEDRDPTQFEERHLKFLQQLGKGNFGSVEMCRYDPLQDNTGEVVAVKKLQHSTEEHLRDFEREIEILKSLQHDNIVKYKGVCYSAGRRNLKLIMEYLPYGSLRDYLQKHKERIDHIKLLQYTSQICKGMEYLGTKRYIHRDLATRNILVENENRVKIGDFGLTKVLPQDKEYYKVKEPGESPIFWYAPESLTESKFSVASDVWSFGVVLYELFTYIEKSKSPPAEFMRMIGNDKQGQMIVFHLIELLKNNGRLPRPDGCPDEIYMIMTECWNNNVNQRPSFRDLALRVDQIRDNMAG

TBK1 = TBK1 (Homo sapiens (Human), UniProt Q9UHD2); assay: TBK1 TR-FRET enzymatic assay;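 further: phosphorylation of a biotinylated Ser/Thr peptide by purified full-length recombinant TBK1, read by TR-FRET after 240 min at 25 °C, IC50 is the geometric mean of at least four runs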
Sequence of TBK1 (Q9UHD2 whole entry): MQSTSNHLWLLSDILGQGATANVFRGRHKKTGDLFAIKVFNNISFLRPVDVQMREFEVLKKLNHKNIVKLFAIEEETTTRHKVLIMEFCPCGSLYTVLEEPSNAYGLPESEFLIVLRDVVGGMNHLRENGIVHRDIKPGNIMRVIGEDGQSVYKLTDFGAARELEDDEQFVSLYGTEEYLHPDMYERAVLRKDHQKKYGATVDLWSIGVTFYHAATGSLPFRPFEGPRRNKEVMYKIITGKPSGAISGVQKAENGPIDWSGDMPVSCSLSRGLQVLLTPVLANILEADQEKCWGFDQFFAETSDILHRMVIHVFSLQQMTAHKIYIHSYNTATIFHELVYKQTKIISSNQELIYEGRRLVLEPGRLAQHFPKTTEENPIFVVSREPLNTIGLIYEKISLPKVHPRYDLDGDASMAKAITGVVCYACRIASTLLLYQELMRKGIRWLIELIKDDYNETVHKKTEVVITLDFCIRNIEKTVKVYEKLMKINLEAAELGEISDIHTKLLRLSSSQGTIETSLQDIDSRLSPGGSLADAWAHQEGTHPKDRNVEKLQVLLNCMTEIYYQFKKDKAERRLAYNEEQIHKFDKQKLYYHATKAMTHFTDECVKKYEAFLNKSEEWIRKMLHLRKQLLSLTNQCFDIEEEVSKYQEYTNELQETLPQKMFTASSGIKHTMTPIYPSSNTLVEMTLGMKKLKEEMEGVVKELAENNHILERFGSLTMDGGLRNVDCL

Sequence of IKKε (Q14164 whole entry): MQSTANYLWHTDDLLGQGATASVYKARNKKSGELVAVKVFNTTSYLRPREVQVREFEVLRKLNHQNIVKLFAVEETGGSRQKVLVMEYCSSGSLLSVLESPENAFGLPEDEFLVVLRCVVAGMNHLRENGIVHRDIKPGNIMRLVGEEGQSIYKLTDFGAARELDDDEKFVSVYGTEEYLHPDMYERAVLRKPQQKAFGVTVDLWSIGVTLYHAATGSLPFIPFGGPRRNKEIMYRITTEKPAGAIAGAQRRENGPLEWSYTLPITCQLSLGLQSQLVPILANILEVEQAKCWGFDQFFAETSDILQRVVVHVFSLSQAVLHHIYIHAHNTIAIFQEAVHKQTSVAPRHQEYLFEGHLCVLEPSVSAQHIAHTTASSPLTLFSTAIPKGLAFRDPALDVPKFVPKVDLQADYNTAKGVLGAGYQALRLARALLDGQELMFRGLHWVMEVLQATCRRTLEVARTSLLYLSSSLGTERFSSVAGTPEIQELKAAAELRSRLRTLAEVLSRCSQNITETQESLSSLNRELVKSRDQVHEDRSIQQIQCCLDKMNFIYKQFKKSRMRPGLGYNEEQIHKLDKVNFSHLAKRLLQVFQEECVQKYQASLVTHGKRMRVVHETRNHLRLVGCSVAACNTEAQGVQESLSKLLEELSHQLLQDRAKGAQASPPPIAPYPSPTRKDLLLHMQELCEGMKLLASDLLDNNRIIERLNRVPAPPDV

Row | Compound | IC50 (IKKε) [nM] | IC50 (hJAK2) [nM] | IC50 (TBK1) [nM]
1 | C[C@H](O)C(=O)N1CC[C@H](Oc2ccc(-c3ncnc(Nc4ccc5c(c4)NCCO5)n3)cc2C#N)[C@H](F)C1 [Example 517, 5-(4-((3,4-dihydro-2H-benzo[b][1,4]oxazin-6-yl)amino)-1,3,5-triazin-2-yl)-2-(((3R,4S)-3-fluoro-1-((S)-2-hydroxypropanoyl)piperidin-4-yl)oxy)benzonitrile] | 1 | 828 | 2
2 | N#Cc1cc(-c2ncnc(Nc3ccc(N4CCN(C5COC5)CC4)cc3)n2)ccc1O[C@H]1CCN(C(=O)[C@@H]2COC(=O)N2)CC1(F)F [Example 519, 2-(((S)-3,3-difluoro-1-((S)-2-oxooxazolidine-4-carbonyl)piperidin-4-yl)oxy)-5-(4-((4-(4-(oxetan-3-yl)piperazin-1-yl)phenyl)amino)-1,3,5-triazin-2-yl)benzonitrile] | 1 | 184 | 2
3 | N#Cc1cc(-c2ncnc(Nc3ccc(N4CCN(C5COC5)CC4)cc3)n2)ccc1O[C@H]1CCN(C(=O)[C@@H]2CSC(=O)N2)CC1(F)F [Example 520, 2-(((S)-3,3-difluoro-1-((R)-2-oxothiazolidine-4-carbonyl)piperidin-4-yl)oxy)-5-(4-((4-(4-(oxetan-3-yl)piperazin-1-yl)phenyl)amino)-1,3,5-triazin-2-yl)benzonitrile] | 1 | 177 | 2
4 | Cc1cc(-c2ncnc(Nc3ccc(N4CCN(C5COC5)CC4)cc3)n2)cc(C#N)c1O[C@H]1CCN(C(=O)[C@H](C)O)C[C@H]1F [Example 521, 2-(((3R,4S)-3-fluoro-1-((S)-2-hydroxypropanoyl)piperidin-4-yl)oxy)-3-methyl-5-(4-((4-(4-(oxetan-3-yl)piperazin-1-yl)phenyl)amino)-1,3,5-triazin-2-yl)benzonitrile] | 39 | ≥ 1000 | 16
5 | Cc1cc(-c2ncnc(Nc3ccc(N4CCN(C5COC5)CC4)cc3)n2)cc(C#N)c1O[C@H]1CCN(C(=O)CO)C[C@H]1F [Example 522, 2-(((3R,4S)-3-fluoro-1-(2-hydroxyacetyl)piperidin-4-yl)oxy)-3-methyl-5-(4-((4-(4-(oxetan-3-yl)piperazin-1-yl)phenyl)amino)-1,3,5-triazin-2-yl)benzonitrile] | 28 | ≥ 1000 | 14
6 | C[C@@H]1OC(=O)N[C@@H]1C(=O)N1CC[C@H](Oc2ccc(-c3ncnc(Nc4ccc(N5CCN(C6COC6)CC5)cc4)n3)cc2C#N)[C@H](F)C1 [Example 524, 2-(((3R,4S)-3-fluoro-1-((4S,5S)-5-methyl-2-oxooxazolidine-4-carbonyl)piperidin-4-yl)oxy)-5-(4-((4-(4-(oxetan-3-yl)piperazin-1-yl)phenyl)amino)-1,3,5-triazin-2-yl)benzonitrile] | 29 | 959 | 7
7 | N#Cc1cc(-c2ncnc(Nc3ccc(N4CCN(C5COC5)CC4)cc3)n2)ccc1O[C@H]1CCN(C(=O)c2coc(=O)[nH]2)C[C@H]1F [Example 525, 2-(((3R,4S)-3-fluoro-1-(2-oxo-2,3-dihydrooxazole-4-carbonyl)piperidin-4-yl)oxy)-5-(4-((4-(4-(oxetan-3-yl)piperazin-1-yl)phenyl)amino)-1,3,5-triazin-2-yl)benzonitrile] | 3 | 390 | 3
8 | Cc1n[nH]c(C(=O)N2CC[C@H](Oc3ccc(-c4ncnc(Nc5ccc(N6CCN(C7COC7)CC6)cc5)n4)cc3C#N)[C@H](F)C2)c1C [Example 526, 2-(((3R,4S)-1-(3,4-dimethyl-1H-pyrazole-5-carbonyl)-3-fluoropiperidin-4-yl)oxy)-5-(4-((4-(4-(oxetan-3-yl)piperazin-1-yl)phenyl)amino)-1,3,5-triazin-2-yl)benzonitrile] | 19 | 447 | 9
9 | Cc1c[nH]c(C(=O)N2CC[C@H](Oc3ccc(-c4ncnc(Nc5ccc(N6CCN(C7COC7)CC6)cc5)n4)cc3C#N)[C@H](F)C2)n1 [Example 527, 2-(((3R,4S)-3-fluoro-1-(4-methyl-1H-imidazole-2-carbonyl)piperidin-4-yl)oxy)-5-(4-((4-(4-(oxetan-3-yl)piperazin-1-yl)phenyl)amino)-1,3,5-triazin-2-yl)benzonitrile] | 8 | 323 | 5
10 | Cc1cn[nH]c1C(=O)N1CC[C@H](Oc2ccc(-c3ncnc(Nc4ccc(N5CCN(C6COC6)CC5)cc4)n3)cc2C#N)[C@H](F)C1 [Example 528, 2-(((3R,4S)-3-fluoro-1-(4-methyl-1H-pyrazole-5-carbonyl)piperidin-4-yl)oxy)-5-(4-((4-(4-(oxetan-3-yl)piperazin-1-yl)phenyl)amino)-1,3,5-triazin-2-yl)benzonitrile] | 20 | 368 | 8
11 | N#Cc1cc(-c2ncnc(Nc3ccc(N4CCN(C5COC5)CC4)cc3)n2)ccc1O[C@H]1CCN(C(=O)[C@@H]2CC(=O)N2)C[C@H]1F [Example 529, 2-(((3R,4S)-3-fluoro-1-((S)-4-oxoazetidine-2-carbonyl)piperidin-4-yl)oxy)-5-(4-((4-(4-(oxetan-3-yl)piperazin-1-yl)phenyl)amino)-1,3,5-triazin-2-yl)benzonitrile] | 4 | 356 | 3
12 | COc1cc(Nc2ncnc(-c3ccc(O[C@@H]4CCC(=O)NC4)c(C#N)c3)n2)ccc1N1CCN(C2COC2)CC1 [Example 531, (R)-5-(4-((3-methoxy-4-(4-(oxetan-3-yl)piperazin-1-yl)phenyl)amino)-1,3,5-triazin-2-yl)-2-((6-oxopiperidin-3-yl)oxy)benzonitrile] | 3 | 55 | 4
13 | Cc1cc(Nc2ncnc(-c3ccc(O[C@H]4CCN(C(=O)CCO)C[C@H]4F)c(C#N)c3)n2)ccc1N1CCN(C2COC2)CC1 [Example 533, 2-(((3R,4S)-3-fluoro-1-(3-hydroxypropanoyl)piperidin-4-yl)oxy)-5-(4-((3-methyl-4-(4-(oxetan-3-yl)piperazin-1-yl)phenyl)amino)-1,3,5-triazin-2-yl)benzonitrile] | 7 | 88 | 4
14 | Cc1cc(Nc2ncnc(-c3ccc(N4C[C@H](O)C[C@@H]4C)c(C#N)c3)n2)ccc1N1CCN(C2COC2)CC1 [Example 534, 2-((2S,4R)-4-hydroxy-2-methylpyrrolidin-1-yl)-5-(4-((3-methyl-4-(4-(oxetan-3-yl)piperazin-1-yl)phenyl)amino)-1,3,5-triazin-2-yl)benzonitrile] | 7 | 32 | 4
15 | C[C@H]1CN(c2ccc(Nc3ncnc(-c4ccc(O[C@H]5CCN(C(=O)[C@@H]6CCC(=O)N6)C[C@H]5F)c(C#N)c4)n3)cc2)CCN1C1COC1 [Example 535, 2-(((3R,4S)-3-fluoro-1-((S)-5-oxopyrrolidine-2-carbonyl)piperidin-4-yl)oxy)-5-(4-((4-((S)-3-methyl-4-(oxetan-3-yl)piperazin-1-yl)phenyl)amino)-1,3,5-triazin-2-yl)benzonitrile] | 3 | 904 | 3
